Results on 18 molecules are retold here after ChEMBL document CHEMBL3792348, “Design, synthesis and structure activity relationship of potent pan-PIM kinase inhibitors derived from the pyridyl carboxamide scaffold” (Bioorg Med Chem Lett, 2016).

Data set [1] is described as follows: Hepatic extraction ratio in human liver microsomes at 1 uM incubated for 30 mins by semi-quantitative LC-MS/MS analysis. The format is ADME. As to conditions: read-out: ERH. A general note: Liver microsomes are a subcellular fraction often used to study metabolism.
A short description of data set [2]: Hepatic extraction ratio in rat liver microsomes at 1 uM incubated for 30 mins by semi-quantitative LC-MS/MS analysis. The format is ADME. As to conditions: read-out: ERH.
Data set [3] can be described thus: Lipophilicity, logD of the compound. The format is physicochemical. The following applies: octanol/water.
For data set [4], the target named is Serine/threonine-protein kinase pim-2 (Homo sapiens, UniProt Q9P1W9).
Description: Inhibition of Pim2 (unknown origin) using BAD peptide preincubated for 15 mins followed by ATP addition measured after 60 to 100 mins by Kinase-Glo reagent based luminescence assay
Data set [5] deals with Serine/threonine-protein kinase pim-1 (Homo sapiens, UniProt P11309). Nature of the data set: Inhibition of Pim1 (unknown origin) using BAD peptide preincubated for 15 mins followed by ATP addition measured after 60 to 100 mins by Kinase-Glo reagent based luminescence assay. (In Kinase-Glo more light means more ATP remaining.)
Data set [6] concerns the target Serine/threonine-protein kinase pim-3 (Homo sapiens, UniProt Q86V86). Put plainly: Inhibition of Pim3 (unknown origin) using BAD peptide preincubated for 15 mins followed by ATP addition measured after 60 to 100 mins by Kinase-Glo reagent based luminescence assay.

Chain of Serine/threonine-protein kinase pim-2 (Q9P1W9 whole entry): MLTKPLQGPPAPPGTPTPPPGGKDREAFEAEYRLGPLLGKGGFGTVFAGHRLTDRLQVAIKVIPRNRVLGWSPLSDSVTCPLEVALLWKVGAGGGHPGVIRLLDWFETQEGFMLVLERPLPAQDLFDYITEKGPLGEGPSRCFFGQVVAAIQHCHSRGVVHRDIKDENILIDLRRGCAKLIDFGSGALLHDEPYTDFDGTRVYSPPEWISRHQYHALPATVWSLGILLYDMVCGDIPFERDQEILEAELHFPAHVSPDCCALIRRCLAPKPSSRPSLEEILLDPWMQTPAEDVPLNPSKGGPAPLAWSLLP
Chain of Serine/threonine-protein kinase pim-1 (P11309 whole entry): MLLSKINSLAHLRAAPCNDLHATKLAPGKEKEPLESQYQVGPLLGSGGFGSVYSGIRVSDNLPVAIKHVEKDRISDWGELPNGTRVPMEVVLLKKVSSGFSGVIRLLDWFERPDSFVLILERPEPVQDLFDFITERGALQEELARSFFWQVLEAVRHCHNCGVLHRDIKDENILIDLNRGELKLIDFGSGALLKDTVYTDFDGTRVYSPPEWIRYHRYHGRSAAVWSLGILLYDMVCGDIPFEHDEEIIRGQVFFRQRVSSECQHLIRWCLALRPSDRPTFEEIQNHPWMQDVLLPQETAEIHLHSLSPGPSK

With `Nc1cc(-c2ccncc2NC(=O)c2nc(-c3c(F)cccc3F)ccc2N)nc(C(F)(F)F)n1`, the hepatic extraction ratio at 0.5 h, 1 µM in data set [1] is 0.77; in data set [2], 0.91. Further, in data set [3], the logD (usually the decadic logarithm of the distribution of all forms, ionised or not, between an organic phase and buffer at a given pH) is 4.3. The Ki (as a rule, a measure of affinity in units of concentration, obtained from inhibition or displacement) was < 3 nM in data set [4], < 1 nM in data set [5] and < 3 nM in data set [6].
With `Nc1cc(-c2ccncc2NC(=O)c2nc(-c3c(F)cccc3F)ccc2N)ccn1`, the Ki in data set [4] was 8 nM; in data set [5] it was 2 nM; in data set [6], < 3 nM.
Turning to `Nc1ccc(-c2ccncc2NC(=O)c2nc(-c3ccccc3F)ccc2N)cn1`, the Ki in data set [4] came out at 158 nM; in data set [5], 4 nM; in data set [6], 12 nM.
Consider `Nc1cc(-c2ccncc2NC(=O)c2nc(-c3ccccc3F)ccc2N)nc(N)n1`, for which the inhibitory constant (Ki) in data set [4] amounted to 120 nM; in data set [5] it was 17 nM; in data set [6], 15 nM.
As for `Cc1cc(-c2ccncc2NC(=O)c2nc(-c3ccccc3F)ccc2N)nc(N)n1`, the hepatic extraction ratio at 0.5 h, 1 µM is 0.58 in data set [1] and 0.8 in data set [2]. For the same molecule, the Ki in data set [4] is < 3 nM; in data set [5], < 1 nM; in data set [6], < 3 nM.
For `Cc1cc(-c2ccncc2NC(=O)c2nc(-c3c(F)cccc3F)ccc2N)cc(N)n1`, the hepatic extraction ratio at 0.5 h, 1 µM was 0.96 in data set [1] and 0.94 in data set [2]. For the same molecule, the Ki in data set [4] was < 3 nM; in data set [5], < 1 nM; in data set [6], < 3 nM.
`Nc1cc(-c2ccncc2NC(=O)c2nc(-c3nccs3)ccc2N)nc(C(F)(F)F)n1`: the values for the hepatic extraction ratio at 0.5 h, 1 µM in data set [1] and in data set [2] were 0.87 and 0.89, respectively. Further, the Ki in data set [4] was < 3 nM; in data set [5], < 1 nM; in data set [6] it was < 3 nM.
In the case of `Nc1nccc(-c2ccncc2NC(=O)c2nc(-c3c(F)cccc3F)ccc2N)n1`, the Ki turned out to be 50 nM in data set [4], 6 nM in data set [5] and 5 nM in data set [6].
For the molecule `Cc1nc(N)cc(-c2ccncc2NC(=O)c2nc(-c3c(F)cccc3F)ccc2N)n1`, the hepatic extraction ratio at 0.5 h, 1 µM in data set [1] and in data set [2] was 0.82 each time. Besides, the Ki in data set [4] is < 3 nM; in data set [5], < 1 nM; in data set [6], < 3 nM.
Turning to `CC(=O)Nc1nc(C(=O)Nc2ccccc2N2CCCCC2)cs1`, the Ki in data set [4] was > 12500 nM; in data set [5] it was 90 nM.
`Nc1cncc(-c2ccncc2NC(=O)c2nc(-c3ccccc3F)ccc2N)n1`: the Ki was 94 nM in data set [4], 3 nM in data set [5] and 6 nM in data set [6].
Take `Cc1cc(-c2ccncc2NC(=O)c2nc(-c3ccccc3F)ccc2N)cc(N)n1`: the hepatic extraction ratio at 0.5 h, 1 µM in data set [1] and in data set [2] was 0.95 throughout. Further, the inhibition constant Ki in data set [4] is 4 nM; in data set [5] it was < 1 nM; in data set [6] it was < 3 nM.
With `Cc1cc(-c2ccncc2NC(=O)c2nc(-c3nccs3)ccc2N)nc(N)n1`, the hepatic extraction ratio at 0.5 h, 1 µM in data set [1] amounted to 0.64; in data set [2], 0.81. Moreover, the Ki in data set [4] was 9 nM; in data set [5], < 1 nM; in data set [6], < 3 nM.
Regarding `Nc1cc(-c2ccncc2NC(=O)c2nc(-c3ccccc3F)ccc2N)ccn1`, the figures for the inhibition constant (Ki) in data set [4], in data set [5] and in data set [6] were 35 nM, < 1 nM and 3 nM, respectively.
For the molecule `Nc1ccc(-c2c(F)cccc2F)nc1C(=O)Nc1cnccc1-c1cccnc1N`, the Ki in data set [4] worked out at 187 nM; in data set [5] it was 28 nM; in data set [6], 36 nM.
`Nc1cc(-c2ccncc2NC(=O)c2nc(-c3c(F)cccc3F)ccc2N)ncn1`: the Ki turned out to be 27 nM in data set [4], 4 nM in data set [5] and 5 nM in data set [6].
On to `COc1cc(-c2ccncc2NC(=O)c2nc(-c3c(F)cccc3F)ccc2N)cc(N)n1`, for which the Ki in data set [4] was 4 nM; in data set [5] it was < 1 nM; in data set [6], < 3 nM.
In the case of `Nc1ccc(-c2ccccc2F)nc1C(=O)Nc1cnccc1-c1ccncc1`, the results for the Ki in data set [4], in data set [5] and in data set [6] were 317 nM, 8 nM and 21 nM, respectively.
